# Data taken from patent publication US11278499B2, “Oral drug dosage form comprising various release profiles” (Triastek, Inc., priority 2015, dated 2022).
# Assay: Release of benzoic acid from pie-shaped-compartment dosage form, UV 226 nm
# Format: physicochemical
# Settings: PEG8000 flat tablet with pie shaped compartment; pH 8 Na2HPO4 solution, 37° C., 100 rpm; FIG. 18C
# Method: The release profile of the benzoic acid from the dosage form was measured as the following method. Na2HPO4 solution of pH 8 was prepared as dissolvent of benzoic acid. Benzoic acid solution of 120 μg/mL was serially diluted to 30 μg/mL, 15 μg/m, 7.5 μg/m, 3.75 μg/mL, and 1.875 μg/mL solutions, whose absorbance at 226 nm was measured using a UV spectrophotometer. The numbers obtained were treated with linear regression to generate a standard curve of benzoic acid concentration with the formula y=0.0599x+0.0347. To measure the released amount of benzoic acid, the dosage form was dissolved in degassed pH 8 Na2HPO4 solution at 37° C.±0.5° C. and […] at 100 rpm. 5 mL solution was collected from the solution at each time point to measure the concentration of benzoic acid with 5 mL dissolvent added back to the solution. The collected solution was filtered through 0.45 um membrane before transferred to an UV spectrophotometer for measuring the absorbance at 226 nm. The percentage of benzoic acid released was calculated using the following formula: […]
# Wherein Cn means concentrate measured, Vtmeans total solution volume,
# Vs means sample volume, Qbenzoic acid means amout of benzoic acid in the dosage form
smiles,measurement,value
"O=C(O)c1ccccc1 [benzoic acid, Benzoic acid]",release profile of the benzoic acid,matches a model profile
